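Step 1: Grow cells in 96-well plates. Step 2: Expose to compound for 48 hours at 5 concentrations. Step 3: Interpolate endpoints linearly; if unreached, use highest concentration. GI50 = concentration required for 50% inhibition of growth.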 Calls of active or inactive are those of the source. Cut-off read from the data, not from the text of the source: active = GI50 up to about 1.1 µM and inactive = higher. Peptide text beside a SMILES is read from it. * marks the point of attachment. Cbz = O=C(OCc1ccccc1)*; CH2Cl = ClC* Bounds are passed on as bounds.

Test systems include UACC-257; SN12C; BT-549; MDA-N; SK-OV-3; OVCAR-3; OVCAR-5; SF-268; EKVX; MDA-MB-435; MOLT-4; K562; SNB-19; HOP-62; UO-31; U-251; SF-539; T47D; CAKI-1; RXF 393.
Experiment in all cases: NCI anticancer screen, dose series, 48 h

As for `CC(C)CC(NC(=O)OCc1ccccc1)C(=O)NC(Cc1ccccc1)C(=O)CCl` (stereo not drawn) (Cbz-Leu-Phe-CH2Cl; configuration not given here), the GI50 in the test on UACC-257 was 4 µM (inactive); in the test on SN12C, 1.77 µM (inactive); in the test with BT-549, 2.47 µM (inactive); in the test with MDA-N it was 1.56 µM (inactive); with SK-OV-3 it was 11.4 µM (inactive); in the test with OVCAR-3, 3.72 µM (inactive). Further, the GI50 in the test on OVCAR-5 was 3.71 µM (inactive); in the test on SF-268, 4.86 µM (inactive); in the test on EKVX it was 18.6 µM (inactive); with MDA-MB-435, 2.34 µM (inactive); in the test with MOLT-4 it was 0.664 µM (active); in the test on K562, 0.7 µM (active). The GI50 was 23.6 µM (inactive) in the test with SNB-19; 16.1 µM (inactive) in the test with HOP-62; 6.46 µM (inactive) in the test on UO-31; 8.38 µM (inactive) in the test with U-251; 3.32 µM (inactive) in the test with SF-539; 2.21 µM (inactive) with T47D. Moreover, the results for the GI50 with CAKI-1 and with RXF 393 were 5.14 µM (inactive) and 1.7 µM (inactive), respectively.
As to `c1ccc(-c2cc(C3CO3)c3ccccc3n2)cc1` (stereo not given), the GI50 is 19.1 µM (inactive) with UACC-257; 16.3 µM (inactive) in the test on SN12C; 20.7 µM (inactive) in the test with BT-549; 19.1 µM (inactive) with MDA-N; 35 µM (inactive) in the test with SK-OV-3; 17.9 µM (inactive) in the test with OVCAR-3. The GI50 in the test on OVCAR-5 is 22 µM (inactive); with SF-268 it was 20 µM (inactive); in the test on EKVX, 18.2 µM (inactive); in the test on MDA-MB-435, 18.9 µM (inactive); in the test with MOLT-4, 23.7 µM (inactive); in the test with K562 it was 34.4 µM (inactive). Besides, the GI50 in the test on SNB-19 is 29.1 µM (inactive); with HOP-62, 26.5 µM (inactive); with UO-31, 1.52 µM (inactive); in the test on U-251, 16 µM (inactive); with SF-539 it was 21.2 µM (inactive); in the test with T47D it was 18.9 µM (inactive). Further, the results for the GI50 in the test on CAKI-1 and in the test with RXF 393 were 22.5 µM (inactive) and 13.5 µM (inactive), respectively.
Regarding `CCOC(=O)NC(Nc1ccc(F)cc1)(C(=O)OCC)C(F)(F)F` (stereo not given), the GI50 with UACC-257 was 3.47 µM (inactive); in the test on SN12C it was > 100 µM (inactive); in the test on BT-549, > 100 µM (inactive); in the test on MDA-N it was > 62.1 µM (inactive); with SK-OV-3, > 100 µM (inactive); in the test on OVCAR-3 it was > 100 µM (inactive). In addition, the GI50 in the test with OVCAR-5 was > 100 µM (inactive); in the test on SF-268, > 100 µM (inactive); in the test with EKVX, > 100 µM (inactive); in the test on MDA-MB-435, 0.268 µM (active); in the test on MOLT-4, 6.71 µM (inactive); in the test on K562 it was < 0.0307 µM (active). In addition, the GI50 with SNB-19 was > 100 µM (inactive); in the test with HOP-62 it was > 100 µM (inactive); in the test on UO-31 it was 8.59 µM (inactive); in the test with U-251 it was > 100 µM (inactive); in the test on SF-539, > 100 µM (inactive); in the test with T47D, 3.72 µM (inactive). Also, the GI50 with CAKI-1 and in the test on RXF 393 was > 100 µM (inactive) throughout.
As to `N#Cc1ccc(NC(=O)C(CC(=O)OCc2ccccc2)NC(=O)OCc2ccccc2)cc1` (stereo not given), the GI50 in the test on UACC-257, in the test with SN12C, in the test with BT-549, in the test with MDA-N, with SK-OV-3 and in the test on OVCAR-3 was > 10 µM (inactive) each time. Moreover, the GI50 in the test on OVCAR-5, in the test with SF-268, in the test with EKVX, in the test with MDA-MB-435, with MOLT-4 and with K562 was > 10 µM (inactive) in each case. Also, the GI50 in the test on SNB-19, in the test with HOP-62, in the test with UO-31, in the test on U-251, in the test with SF-539 and with T47D was > 10 µM (inactive) throughout. The GI50 with CAKI-1 and in the test on RXF 393 was > 10 µM (inactive) in each case.
In the case of `O=C1C(Cl)=C(N2C(=O)CCC2=O)C(=O)c2ccccc21`, the GI50 is 25.2 µM (inactive) in the test on UACC-257; 17.9 µM (inactive) in the test on SN12C; 20.5 µM (inactive) in the test on BT-549; 19.4 µM (inactive) with MDA-N; > 100 µM (inactive) in the test with SK-OV-3; 17.9 µM (inactive) with OVCAR-3. The GI50 is 20.4 µM (inactive) in the test on OVCAR-5; 40.1 µM (inactive) with SF-268; 34.2 µM (inactive) in the test on EKVX; 19.8 µM (inactive) with MDA-MB-435; 50.7 µM (inactive) in the test with MOLT-4; 2.83 µM (inactive) in the test on K562. Also, the GI50 in the test on SNB-19 was 52.6 µM (inactive); in the test on HOP-62 it was > 100 µM (inactive); in the test on UO-31 it was 15 µM (inactive); in the test on U-251, 23.9 µM (inactive); with SF-539, 39.8 µM (inactive); in the test on T47D, 32.4 µM (inactive). Also, the GI50 in the test with CAKI-1 is 19.1 µM (inactive); with RXF 393, 18.5 µM (inactive).
Turning to `Cc1cnc(/C=N\NC(N)=S)c2cccc(N)c12`, the GI50 in the test with UACC-257 was 2.54 µM (inactive); in the test on SN12C, 0.434 µM (active); in the test on BT-549 it was 0.536 µM (active); in the test on MDA-N, 0.767 µM (active); in the test with SK-OV-3 it was 2.59 µM (inactive); with OVCAR-3, 0.426 µM (active). Also, the GI50 is 5.46 µM (inactive) in the test with OVCAR-5; 0.565 µM (active) with SF-268; 1.1 µM (active) in the test with EKVX; 1.48 µM (inactive) in the test on MDA-MB-435; 0.34 µM (active) in the test on MOLT-4; 0.881 µM (active) with K562. In addition, the GI50 with SNB-19 is 1.3 µM (inactive); in the test with HOP-62, 0.904 µM (active); in the test on UO-31, 0.52 µM (active); in the test on U-251, 0.604 µM (active); in the test with SF-539, 0.676 µM (active); in the test with T47D, 0.497 µM (active). The GI50 in the test with CAKI-1 is 0.516 µM (active); in the test with RXF 393, 0.728 µM (active).
On to `C=CCN1C(=O)/C(=C/c2ccco2)N=C1SC/C=C/C`, for which the GI50 with UACC-257 was 48.5 µM (inactive); in the test on SN12C, 23.5 µM (inactive); in the test on BT-549, 40.2 µM (inactive); with MDA-N, 21.7 µM (inactive); in the test on SK-OV-3, > 100 µM (inactive); in the test with OVCAR-3, 35.6 µM (inactive). Besides, the GI50 with OVCAR-5 is > 100 µM (inactive); in the test with SF-268 it was 49.2 µM (inactive); in the test with EKVX it was 37.7 µM (inactive); with MDA-MB-435, 31.8 µM (inactive); with MOLT-4, 19.5 µM (inactive); in the test with K562, 32.4 µM (inactive). Moreover, the GI50 with SNB-19 was 71.3 µM (inactive); with HOP-62, > 100 µM (inactive); with UO-31, 73.5 µM (inactive); in the test on U-251, 49.2 µM (inactive); with SF-539 it was > 100 µM (inactive); in the test with T47D, 43.6 µM (inactive). The values for the GI50 in the test on CAKI-1 and in the test on RXF 393 were 90.8 µM (inactive) and 29.2 µM (inactive), respectively.
As to `CCCCCCCCCCCCCCCCCCNC(=O)OCC(CNS(=O)(=O)CCC[n+]1cccc2ccccc21)COC` (stereo not given), the GI50 in the test with UACC-257 is 2.8 µM (inactive); in the test with SN12C it was 1.56 µM (inactive); in the test with BT-549, 2.18 µM (inactive); in the test with MDA-N it was 1.81 µM (inactive); in the test on SK-OV-3 it was 2.49 µM (inactive); in the test on OVCAR-3, 3.99 µM (inactive). The GI50 with OVCAR-5 is 2.13 µM (inactive); in the test on SF-268 it was 2.34 µM (inactive); in the test on EKVX, 17.7 µM (inactive); with MDA-MB-435, 2.1 µM (inactive); in the test on MOLT-4, 1.11 µM (active); in the test on K562, 3.55 µM (inactive). In addition, the GI50 is 1.4 µM (inactive) in the test with SNB-19; 3.76 µM (inactive) with HOP-62; 27.9 µM (inactive) in the test with UO-31; 0.596 µM (active) with U-251; 2.01 µM (inactive) in the test with SF-539; 3.88 µM (inactive) in the test on T47D. For the same compound, the GI50 with CAKI-1 was 7.82 µM (inactive); with RXF 393, 4.99 µM (inactive).
With `C=CC(c1ccccc1)[C@@]1(OC(C)=O)C(=O)C(=O)OC1C1COC(C)(C)O1` (stereo not given in full), the GI50 with UACC-257 is 9.71 µM (inactive); in the test on SN12C it was 7.66 µM (inactive); in the test with BT-549, 12 µM (inactive); with MDA-N it was 10.4 µM (inactive); in the test on SK-OV-3, 18.1 µM (inactive); in the test on OVCAR-3 it was 10.7 µM (inactive). In addition, the GI50 with OVCAR-5 was 18.5 µM (inactive); in the test on SF-268 it was 24.2 µM (inactive); with EKVX it was 17.9 µM (inactive); in the test with MDA-MB-435, 13.9 µM (inactive); with MOLT-4, 3.7 µM (inactive); with K562, 3.94 µM (inactive). For the same compound, the GI50 with SNB-19 is 19.5 µM (inactive); in the test with HOP-62, 17.3 µM (inactive); in the test with UO-31, 11.5 µM (inactive); with U-251, 14.3 µM (inactive); in the test on SF-539, 10.4 µM (inactive); in the test with T47D, 13.2 µM (inactive). Besides, the GI50 in the test with CAKI-1 is 4.72 µM (inactive); in the test on RXF 393, 4.68 µM (inactive).
Take `COC(=O)CNC(=O)CCC(C)[C@H]1CCC2C3C(C[C@H](OC(C)=O)[C@@]21C)[C@@]1(C)CCC2(C[C@H]1C[C@H]3OC(C)=O)OOC1(CC[C@]3(C)C4C[C@H](OC(C)=O)[C@@]5(C)C(CC[C@@H]5C(C)CCC(=O)NCC(=O)OC)C4[C@H](OC(C)=O)C[C@@H]3C1)OO2` (stereo not given in full): the GI50 is 1.14 µM (inactive) in the test with UACC-257; 0.802 µM (active) in the test with SN12C; > 50 µM (inactive) in the test on BT-549; 3.44 µM (inactive) in the test with MDA-N; 5.37 µM (inactive) with SK-OV-3; 3.03 µM (inactive) in the test on OVCAR-3. For the same compound, the GI50 in the test with OVCAR-5 was 2.03 µM (inactive); in the test with SF-268, 2.19 µM (inactive); in the test with EKVX, 0.993 µM (active); in the test on MDA-MB-435, 2.3 µM (inactive); in the test with MOLT-4, 0.163 µM (active); in the test on K562, 1.38 µM (inactive). Further, the GI50 in the test on SNB-19 is 37.2 µM (inactive); in the test with HOP-62, 0.746 µM (active); in the test with UO-31, 0.828 µM (active); with U-251, 3.78 µM (inactive); with SF-539, 0.959 µM (active); in the test with T47D, 2.6 µM (inactive). In addition, the GI50 with CAKI-1 was 2.15 µM (inactive); in the test with RXF 393 it was 0.931 µM (active).

(Values after ChEMBL document CHEMBL1201862, “PubChem BioAssay data set” (2004).)
